We go through 15 molecules from patent publication US7834024B2, “Compositions and methods for inhibition of the JAK pathway” (Rigel Pharmaceuticals, Inc., priority 2007, dated 2010).

Like-named read-outs stand apart in the source and are kept apart here.

Assay [1] concerns Ramos B-Cell Line Stimulated with IL-4 (JAK-1 and JAK-3 / Stat-6, CD23). The assay can be described thus: Assay for Ramos B-Cell Line Stimulated with IL-4 (CD23 upregulation, FACS). It is filed as cell-based. The note with it: human Ramos B cells, compound 1 hour, IL-4 50 units/mL for 20-24 hours, anti-CD23-PE FACS, read-out: Example 2 (IC50). The method in brief: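 Human Ramos B cells (5×10^4 per point, RPMI with 5% serum) pre-incubated 1 hour at 37° C with compound or DMSO, then stimulated with IL-4 at 50 units/mL final for 20-24 hours. CD23 upregulation measured by flow cytometry.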

In assay [2] the test system is JAK2 (BaF3 V617F cells, UKE-1). The assay is described as follows: Proliferation Assay (Cell Titer-Glo, 72 hours). The note with it: proliferation 72 hours, BaF3 V617F or UKE-1 cells, cell line not given, read-out: Example 7 (IC50). It counts as cell-based. On the procedure:
• Dimethyl Sulfoxide (DMSO) (Sigma-Aldrich, Cat No. D2650) (Control) • Iscove's DMEM, ATCC Catalog #30-2005 • 1 M HEPES, Cellgro Catalog #25-060-Cl (100 mL) • 100 mM Sodium Pyruvate, Cellgro Catalog #25-000-Cl (100 mL) • Penicillin/Streptomycin, 10000 U/mL each, Cellgro Catalog #30-002-Cl (100 mL) • RPMI 1640 (Cellgro, Cat No. 10-040-CM) • Fetal Bovine Serum (JRH, Cat No. 12106-500M) • Donor Equine Serum, Hyclone Catalog #SH30074.02 (100 mL) • 50 μM hydrocortisone solution, Sigma Catalog #H6909-10 ml (10 mL) Culture Conditions
BaF3 V617F cells are maintained and plated in RPMI with 10% FBS. Plating density for these cells is 1×10^5 cells/mL.
UKE-1 are maintained and plated in Iscove's DMEM containing 10% FBS, 10% equine serum, 1% penicillin/streptomycin and 1 uM hydrocortisone. Plating density for these cells is 0.4×10^6 cells/mL
The cells were resuspended in a corresponding medium at a required cell density (see above). 100 μ of cell suspension was added to each well of a flat bottom 96 well white plate. The compound was serially diluted in DMSO from 5 mM in 3-fold dilutions, and then diluted 1:250 in the RPMI 1640 medium containing 5% FBS and pen/strep. 100 μL of resulting 2× compound solution was added per well in duplicate and the cells were allowed to proliferate for 72 hours at 37° C.
Proliferation was measured using Cell Titer-Glo. The substrate was thawed and allowed to come to room temperature. After removal of top 100 μL of medium from each well, 100 μL of the premixed Cell Titer-Glo reagent was added to each well. The plates were mixed on an orbital shaker for three minutes to induce lysis and incubated at ambient temperature for an additional five minutes to allow the signal to equilibrate. The Luminescence was read on the Wallac Plate Reader.
The results of the ability of the compounds of the invention to inhibit JAK2 activity, when tested in the above assay, are shown in the following Table IX wherein the level of activity (i.e. the IC50) for each compound is indicated in Table IX. Thae compound numbers in Table IX Refers to the compound disclosed herein as being preparded hy the methods disclosed herein: […]
In general terms: ATP-based viability assays read luminescence as a measure of living cells.

As usually defined, the IC50 is the concentration that inhibits the measured activity by half. As for “5-Methyl-N2-(I-oxo-1,2,3,4-tetrahydroisoquinolin-7-yl)-N4-[3-oxo-2,2,4-trimethyl-5-pyrido[1,4]oxazin-6-yl]-2,4-pyrimidinediamine [IV-3]”, the IC50 in assay [1] is 231 nM; in assay [2], 2150 nM.

`CN1CCN(C(=O)c2ccc(Nc3ncc(F)c(Nc4ccc(OCC#N)cc4)n3)cc2)CC1` [Compound I-31, N4-(4-Cyanomethoxyphenyl)-5-fluoro-N2-[4-((4-methylpiperazin-1-yl)carbonyl)phenyl]-2,4-pyrimidinediamine]: the IC50 in assay [1] (Homo sapiens, Ramos) worked out at 62.3 nM; in assay [2], 1260 nM.

As to `CN1CCN(c2ccc(Nc3ncc(F)c(Nc4ccc(OCC#N)cc4)n3)cc2C#N)CC1` [Compound I-41, N4-(4-Cyanomethoxyphenyl)-N2-[3-cyano-4-(4-methylpiperazin-1-yl)phenyl]-5-fluoro-2,4-pyrimidinediamine], the IC50 in assay [1] (Homo sapiens, Ramos) is 3.4 nM; in assay [2], 388 nM.

Regarding `N#CCOc1cccc(Nc2nc(Nc3ccc(C(N)=O)cc3)ncc2F)c1` [Compound I-44, N2-(4-Aminocarbonylphenyl)-N4-(3-cyanomethoxyphenyl)-5-fluoro-2,4-pyrimidinediamine], the IC50 was 21.7 nM in assay [1] (Homo sapiens, Ramos) and 567 nM in assay [2].

`Cc1cnc(Nc2cccc(C#N)c2)nc1Nc1ccc2c(c1)NC(=O)CO2` [II-6, N2-(3-Cyanophenyl)-5-methyl-N4-(3-oxo-2H,4H-benzo[1,4]oxazin-6-yl)-2,4-pyrimidinediamine]: the IC50 in assay [1] (Homo sapiens, Ramos) worked out at 69.7 nM; in assay [2] it was 68300 nM.

`Cc1cnc(Nc2cccc(C#N)c2)nc1Nc1ccc2c(c1)N(C)C(=O)CS2` [II-7, N2-(3-Cyanophenyl)-5-methyl-N4-(4-methyl-3-oxo-2H-benzo[1,4]thiazin-6-yl)-2,4-pyrimidinediamine]: the IC50 in assay [1] (Homo sapiens, Ramos) was found to be 116 nM; in assay [2], 1430 nM.

For the molecule `CNC(=O)COc1cccc(Nc2ncc(C)c(Nc3ccc4c(c3)N(C)C(=O)CS4)n2)c1` [II-8, 5-Methyl-N2-[3-(N-methylaminocarbonylmethyleneoxy)phenyl]-N4-(4-methyl-3-oxo-2H-benzo[1,4]thiazin-6-yl)-2,4-pyrimidinediamine], the values for the IC50 in assay [1] and in assay [2] were 56.4 nM and 223 nM, respectively.

On to “N2-(3-Cyanomethoxy-4,5-dimethoxyphenyl)-N4-(2,2-dimethyl-3-oxo-4H-5-pyrido[1,4]oxazin-6-yl)-5-fluoro-2,4-pyrimidinediamine [II-16]”, for which, in assay [1], the IC50 is 213 nM.

As for “N2-(4-Chloro-3-cyano-5-ethyl phenyl)-N4-(2,2-dimethyl-3-oxo-4H-5-pyrido[1,4]oxazin-6-yl)-5-fluoro-2,4-pyrimidinediamine [II-26]”, in assay [1], the IC50 was 16100 nM.

With “N2-(4-Cyanomethyl phenyl)-5-fluoro-N4-(5-methoxycarbonylthiophen-2-yl)-2,4-pyrimidinediamine [Compound I-122]”, the half-inhibitory concentration (IC50) in assay [1] turned out to be 723 nM.

Turning to “N2-[1-(2-(N-Morpholinyl)ethylaminocarbonyl)-1H-indol-6-yl]-N4-[4-(2-propynyloxy)phenyl]-2,4-pyrimidinediamine [VI-2]”, the IC50 in assay [1] turned out to be 1010 nM.

In the case of “N2-[2,3-Dihydro-1-(2-(N-morpholinyl)ethylaminocarbonyl)-1H-indol-6-yl]-N4-[4-(2-propynyloxy)phenyl]-2,4-pyrimidinediamine [VI-1]”, the IC50 in assay [1] was found to be 1010 nM.

For “N4-(3-Chloro-4-methoxyphenyl)-N2-[1-(2-(N-morpholinyl)ethylaminocarbonyl)-1H-indol-6-yl]-2,4-pyrimidinediamine [VI-3]”, the IC50 in assay [1] came to 645 nM.

For “N4-(4-(1-Cyanoethoxy)-3,5-dimethyl phenyl]-5-fluoro-N2-[4-((4-methylpiperazin-1-yl)carbonyl)phenyl]-2,4-pyrimidinediamine [Compound I-98]”, in assay [1], the IC50 is 276 nM.

Take “N4-(4-Chloro-3-methoxyphenyl)-N2-[1-(2-(N-morpholinyl)ethylaminocarbonyl)-1H-indol-6-yl]-2,4-pyrimidinediamine [VI-4]”: in assay [1], the IC50 turned out to be 889 nM.
